Assay results from patent US9856279B2 (AGIOS PHARMACEUTICALS, INC, priority 2011, dated 2018).

Columns and labels:
IDH1 R132H = IDH1 R132H (Homo sapiens, UniProt O75874, R132H); experiment: Assay for IDH1 R132H inhibitors (NADPH/aKG, resazurin detection); format: biochemical; conditions: enzyme assay of Example 12; read-out: IDH1R132H IC50
Outline: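 Compound added to substrate mix (8 uM NADPH, 2 mM aKG), then enzyme mix (0.2 μg/ml IDH1 R132H); 50 min RT in 20 mM Tris pH 7.5, 150 mM NaCl, 10 mM MgCl2, 0.03% BSA. Resazurin detection mix (30 μM) 5 min RT; resorufin fluorescence Ex544/Em590.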

HT1080 cells = experiment: Cellular assay for IDH1m inhibitors: inhibition of 2-HG production (LC-MS, 48 hours) in HT1080 cells; format: cell-based; conditions: Homo sapiens, HT-1080; inhibition of 2-HG production, HT1080 cells; read-out: HT1080 IC50
Outline: (§1)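 Read-out: 2-HG in culture medium by LC-MS after 48 h compound exposure; IC50 = 50% reduction vs DMSO control. Cells plated 5000/well in DMEM/10% FBS, 37 °C, 5% CO2; DMSO 0.2% final.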

U87MG cells = experiment: Cellular assay for IDH1m inhibitors: inhibition of 2-HG production (LC-MS, 48 hours) in U87MG cells; format: cell-based; conditions: Homo sapiens, U-87 MG, inhibition of 2-HG production, U87R132H cells; read-out: U87R132H IC50
Outline: as §1

IDH1 R132H, sequence (O75874 whole entry R132H): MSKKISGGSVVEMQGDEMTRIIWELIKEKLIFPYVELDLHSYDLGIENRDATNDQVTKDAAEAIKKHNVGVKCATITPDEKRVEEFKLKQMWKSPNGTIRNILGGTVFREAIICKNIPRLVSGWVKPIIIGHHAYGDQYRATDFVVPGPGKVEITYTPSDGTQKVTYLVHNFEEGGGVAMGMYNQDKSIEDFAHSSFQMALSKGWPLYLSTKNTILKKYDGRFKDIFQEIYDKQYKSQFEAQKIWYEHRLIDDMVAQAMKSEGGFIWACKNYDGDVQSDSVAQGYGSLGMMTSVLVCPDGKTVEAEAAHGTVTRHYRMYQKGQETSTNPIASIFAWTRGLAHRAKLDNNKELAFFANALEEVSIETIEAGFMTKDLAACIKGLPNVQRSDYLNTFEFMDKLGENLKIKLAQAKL

| SMILES | IC50 (IDH1 R132H) | IC50 (HT1080 cells) | IC50 (U87MG cells) |
| --- | --- | --- | --- |
| C=Cc1cc(-c2cc(C#N)c(N3CCN(C(=O)CCOC)[C@H](C4CC4)C3)nc2C2CC2)ncn1 [Compound 638, (R)-6-cyclopropyl-2-(3-cyclopropyl-4-(3-methoxypropanoyl)piperazin-1-yl)-5-(6-vinylpyrimidin-4-yl)nicotinonitrile] | < 500 nM | < 500 nM | < 500 nM |
| C=Cc1cc(-c2cc(C#N)c(N3CCN(C(=O)CCOC)[C@H](C(C)C)C3)nc2C2CC2)ncn1 [Compound 639, (R)-6-cyclopropyl-2-(3-isopropyl-4-(3-methoxypropanoyl)piperazin-1-yl)-5-(6-vinylpyrimidin-4-yl)nicotinonitrile] | < 500 nM | < 500 nM | < 500 nM |
| C=Cc1cc(Nc2cc(C#N)c(N3CCN(C(=O)CCOC)[C@H](C)C3)nc2C2CC2)ccn1 [Compound 642, (R)-6-cyclopropyl-2-(4-(3-methoxypropanoyl)-3-methylpiperazin-1-yl)-5-((2-vinylpyridin-4-yl)amino)nicotinonitrile] | < 500 nM | < 500 nM | < 500 nM |
| COCCC(=O)N1CCN(c2nc(C3CC3)c(Nc3ccnc(Cl)c3)cc2C#N)C[C@H]1C [Compound 643, (R)-5-((2-chloropyridin-4-yl)amino)-6-cyclopropyl-2-(4-(3-methoxypropanoyl)-3-methylpiperazin-1-yl)nicotinonitrile] | < 500 nM | < 500 nM | 500 to 1000 nM |
| C=Cc1cnc2c(-c3cc(C#N)c(N4CCN(C(=O)CCOC)[C@H](C5CC5)C4)nc3C3CC3)cccc2n1 [Compound 644, (R)-6-cyclopropyl-2-(3-cyclopropyl-4-(3-methoxypropanoyl)piperazin-1-yl)-5-(2-vinylquinoxalin-5-yl)nicotinonitrile] | < 500 nM | < 500 nM | < 500 nM |
| C=Cc1cc(-c2cc(C#N)c(N3CCN(C(=O)CCOC)[C@H](C4CC4)C3)nc2C2CC2)c2cccnc2n1 [Compound 645, (R)-6-cyclopropyl-2-(3-cyclopropyl-4-(3-methoxypropanoyl)piperazin-1-yl)-5-(2-vinyl-1,8-naphthyridin-4-yl)nicotinonitrile] | < 500 nM | < 500 nM | < 500 nM |
| C=Cc1ccnc(Nc2cc(C#N)c(N3CCN(C(=O)CCOC)[C@H](C)C3)nc2C2CC2)c1 [Compound 647, (R)-6-cyclopropyl-2-(4-(3-methoxypropanoyl)-3-methylpiperazin-1-yl)-5-((4-vinylpyridin-2-yl)amino)nicotinonitrile] | < 500 nM | < 500 nM | < 500 nM |
| C=Cc1cc(-c2cc(C#N)c(N3CCN(C(=O)C[C@H]4CCO4)[C@H](C)C3)nc2C2CC2)ccn1 [Compound 648, 2-cyclopropyl-6-((R)-3-methyl-4-(2-((R)-oxetan-2-yl)acetyl)piperazin-1-yl)-2′-vinyl-[3,4′-bipyridine]-5-carbonitrile] | < 500 nM | < 500 nM | < 500 nM |
| C=Cc1cc(-c2cc(C#N)c(N3CCN(C(=O)CC4CCO4)[C@H](C)C3)nc2C2CC2)ccn1 (stereo partly drawn) [Compound 649, 2-cyclopropyl-6-((3R)-3-methyl-4-(2-(oxetan-2-yl)acetyl)piperazin-1-yl)-2′-vinyl-[3,4′-bipyridine]-5-carbonitrile] | < 500 nM | < 500 nM | < 500 nM |
| C=Cc1ncc2c(-c3cc(C#N)c(N4CCN(C(=O)CCO)[C@H](C)C4)nc3C3CC3)cccc2n1 [Compound 652, (R)-6-cyclopropyl-2-(4-(3-hydroxypropanoyl)-3-methylpiperazin-1-yl)-5-(2-vinylquinazolin-5-yl)nicotinonitrile] | < 500 nM | < 500 nM | < 500 nM |
| C=Cc1cc(-c2c(C3CC3)nc(N3CCN(C(=O)CCO)[C@H](C)C3)c(C#N)c2C)ccn1 [Compound 654, (R)-2-cyclopropyl-6-(4-(3-hydroxypropanoyl)-3-methylpiperazin-1-yl)-4-methyl-2′-vinyl-[3,4′-bipyridine]-5-carbonitrile] | < 500 nM | < 500 nM | < 500 nM |
| C=Cc1cnc2c(-c3cc(C#N)c(N4CCN(C(=O)CCO)[C@H](C5CC5)C4)nc3C3CC3)cccc2n1 [Compound 657, (R)-6-cyclopropyl-2-(3-cyclopropyl-4-(3-hydroxypropanoyl)piperazin-1-yl)-5-(2-vinylquinoxalin-5-yl)nicotinonitrile] | < 500 nM | < 500 nM | < 500 nM |
| COCCC(=O)N1CCN(c2nc(C3CC3)c(Nc3ccnc(C#N)c3)cc2C#N)C[C@H]1C [Compound 660, (R)-4-(5-cyano-2-cyclopropyl-6-(4-(3-methoxypropanoyl)-3-methylpiperazin-1-yl)pyridin-3-ylamino)picolinonitrile] | < 500 nM | < 500 nM | < 500 nM |
| C=Cc1cc(-c2cc(C#N)c(N3CCN(C(=O)CCO)[C@H](C4CC4)C3)nc2C2CC2)ncn1 [Compound 663, (R)-6-cyclopropyl-2-(3-cyclopropyl-4-(3-hydroxypropanoyl)piperazin-1-yl)-5-(6-vinylpyrimidin-4-yl)nicotinonitrile] | < 500 nM | < 500 nM | < 500 nM |
| COCCC(=O)N1CCN(c2nc(C3CC3)c(Oc3cc(Cl)ncn3)cc2C#N)C[C@H]1C [Compound 666, (R)-5-((6-chloropyrimidin-4-yl)oxy)-6-cyclopropyl-2-(4-(3-methoxypropanoyl)-3-methylpiperazin-1-yl)nicotinonitrile] | < 500 nM | < 500 nM | < 500 nM |
| C=Cc1cc(Oc2cc(C#N)c(N3CCN(C(=O)CCOC)[C@H](C)C3)nc2C2CC2)ccn1 [Compound 667] | < 500 nM | < 500 nM | < 500 nM |
| C=Cc1nc(-c2cc(C#N)c(N3CCN(C(=O)CCO)[C@H](C4CC4)C3)nc2C2CC2)c2ccccc2n1 [Compound 670, (R)-6-cyclopropyl-2-(3-cyclopropyl-4-(3-hydroxypropanoyl)piperazin-1-yl)-5-(2-vinylquinazolin-4-yl)nicotinonitrile] | < 500 nM | < 500 nM | < 500 nM |
| C=Cc1cc(-c2cc(C#N)c(N3CCN(C(=O)CCOC)[C@H](C4CC4)C3)nc2C2CC2)cnn1 [Compound 674, (R)-6-cyclopropyl-2-(3-cyclopropyl-4-(3-methoxypropanoyl)piperazin-1-yl)-5-(6-vinylpyridazin-4-yl)nicotinonitrile] | < 500 nM | < 500 nM | < 500 nM |
| COCCC(=O)N1CCN(c2nc(C3CC3)c(-c3cnnc(OS(=O)(=O)C(F)(F)F)c3)cc2C#N)C[C@H]1C1CC1 [Compound 675, (R)-5-(5-cyano-2-cyclopropyl-6-(3-cyclopropyl-4-(3-methoxypropanoyl)piperazin-1-yl)pyridin-3-yl)pyridazin-3-yl trifluoromethanesulfonate] | < 500 nM | 1000 to 10000 nM | 500 to 1000 nM |
| C=Cc1cc(Nc2cc(C#N)c(N3CCN(C(=O)CCO)[C@H](C4CC4)C3)nc2C2CC2)ccn1 [Compound 676, (R)-6-cyclopropyl-2-(3-cyclopropyl-4-(3-hydroxypropanoyl)piperazin-1-yl)-5-((2-vinylpyridin-4-yl)amino)nicotinonitrile] | < 500 nM | < 500 nM | < 500 nM |
